Entries after “also recorded” stand apart in the source; their conditions may differ. Where a SMILES comes first, the peptide text is derived from it. Bridges are numbered along the chain shown (N, C = ends). [ ]: non-standard residue; d: D form. The star is where a group is joined. AllylGly = C=CC[C@H](N)C(=O)O; Ethoxycarbonyl = CCOC(=O)*; Butyryl = CCCC(=O)*; Bz = O=C(c1ccccc1)*; N3 = azide
Tests used:
[1] = tested on: gap junctions in hCMVEC cells; conditions: 100 µM; for LY dye spread (number of LY-positive cells) as percentage of untreated control: mean ± SEM
Method: We next investigated the ability of peptide5 variants to inhibit gap junctional communication using a scrape loading assay. In this assay, the cells in culture are loaded with a dye (Lucifer Yellow dilithium salt (LY), M.W. 457.25 Da) of molecular size (<1 kDa) that is able to transit through the gap junctions and the degree of dye spread is then measured by counting the number of cells that contain LY (Supplementary Material, Method 4) ^1. Consistent with our previous study, peptide5 (1) and Cbx reduced the degree of dye spread following incubation with LY (56.16 ± 2.1%; p < 0.0001 and 16.2 ± 1.1%; p < 0.0001, respectively) compared to the untreated controls (Figure 12).
(§1) Human cerebral microvascular endothelial cells (hCMVEC) were purchased from Applied Biological Materials (ABM) Inc, Canada (cat # T0259) (O'Carroll et al., 2015). Cells were cultured in 1 μg/cm^2 collagen I (Gibco) coated T75 flasks from Corning (NY, USA). The growth media was M199 media (Gibco), supplemented with 10% FBS, 1 μg/mL hydrocortisone (Sigma), 3 μg/mL human FGF (Peprotech), 10 μg/mL human EGF (Peprotech), 10 μg/mL heparin (Sigma), 2 mM Glutamax (Gibco), and 80 μM butyryl cAMP (Sigma).
For experiments hCMVECs cells were plated M199 media at a density of 4 x 10^5 cells per well in a collagen coated (1 µg/cm^2) 12-well plate the day prior to the experiment to ensure a confluent monolayer of hCMVECs. On the day of the experiment cells were pre-incubated in carbenoxolone, (100 µM) Peptide5 (5–100 µM) or modified analogues (100 µM) or M199 as a negative control. Cells were washed three times with phosphate buffered saline (PBS) without Ca^2+ or Mg^2+ and incubated in 0.05% Lucifer Yellow (LY) (Sigma), a fluorescent dye that is transferred through coupled gap junction channels (el-Fouly, Trosko, & Chang, 1987), and scrape-wounded with a size 10 carbon steel surgical blade (Swann-Morton, England). Following a 5 minute incubation at 37 °C in 95% O2 and 5% CO2 without light, the 0.05% LY solution was removed. Cells were rinsed four times with HBSS containing Ca^2+ ^+, and then fixed in 4% paraformaldehyde (PFA) in PBS at pH 7.4 for 10 minutes at room temperature. Cells were then washed 3 times in PBS to remove PFA before fluorescent imaging. Fluorescent images were visualized using a Nikon TE2000E inverted fluorescent microscope (10x magnification, 0.3 numerical aperture), and captured using a Digital Sight CCD camera and Eclipse Net software (Nikon). Three images within each well from three independent experiments were taken for analysis, and the total number of cells showing dye uptake from those that had been loaded were counted manually by masked observers. Each peptide was tested in at least an n of 2 separate experiments.

[2] = biological target: T1, Cx43 hemichannel (Homo sapiens, UniProt P17302); assay: HAIR ischemic injury-induced ATP release (hemichannel) assay, bioluminescence; format: cell-based; conditions: hCMVEC cells, 2 h in HAIR solution, 100 µM; for ATP release compared to HAIR control (result in words) / ATP release compared to peptide5 (result in words): one-way ANOVA, Dunnett; for ATP release over untreated HAIR controls: mean ± SEM
T1 construct: ischemic injury–induced ATP release from hCMVEC cells in vitro; host or cells: hCMVEC (human cerebral microvascular endothelial cells)
T1 sequence (P17302 whole entry): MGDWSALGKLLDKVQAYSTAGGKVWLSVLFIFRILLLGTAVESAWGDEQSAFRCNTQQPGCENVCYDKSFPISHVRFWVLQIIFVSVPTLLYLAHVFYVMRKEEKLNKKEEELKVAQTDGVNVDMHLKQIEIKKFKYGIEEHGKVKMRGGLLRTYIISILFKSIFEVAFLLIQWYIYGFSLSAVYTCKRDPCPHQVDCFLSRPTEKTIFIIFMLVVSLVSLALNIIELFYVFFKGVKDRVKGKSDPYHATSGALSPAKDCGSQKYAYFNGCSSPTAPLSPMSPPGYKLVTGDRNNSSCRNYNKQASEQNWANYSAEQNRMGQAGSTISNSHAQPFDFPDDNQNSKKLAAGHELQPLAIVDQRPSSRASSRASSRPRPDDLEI
Method: To test the effect of the peptide modifications on peptide5 (1) activity against hemichannels, a model of ischemic insult on a cell culture model of the brain microvasculature was used to induce Cx43 hemichannel opening and ATP release (Supplementary Material, Method 4). The cells were incubated in hypoxic-acidic ion-shifted ringers (HAIR) solution to generate disrupted pH and ion balance leading to ATP leak from the cells, which can be sampled and quantified luminometrically using a commercially available firefly luciferase assay (Molecular Probes).
as §1
For experiments hCMVECs were plated in M199 media at a density of 2.5 x 10^4 cells per well in a collagen-coated (1 µg/cm^2) 12-well plate the day prior to the experiment. Hypoxic, acidic, ion-shifted Ringer (HAIR) injury solution that mimics ionic concentrations and acid-base shifts of the interstitial space in hypoxic-ischemic brains (Bondarenko & Chesler, 2001) was used to trigger hemichannel opening as described previously (Kim et al., 2017). HAIR solution (38 mM NaCl, 13 mM NaHCO3, 3 mM Na-gluconate, 65 mM K-gluconate, 38 mM NMDG-Cl, 1 mM NaH2PO4, and 1.5 mM MgCl2) was bubbled in 95% N2, 5% CO2 gas (20 L/min) for 5 minutes and pH adjusted to 6.6 before use. To induce ischemic, cells were incubated for 2 hours in 500 µL HAIR solution +/- carbenoxolone (100 µM), Peptide5 or modified analogues (100 µM). For the negative control, hCMVEC cells were incubated for 2 hours in 500 µL standard Ringer solution 124 mM NaCl, 3 mM KCl, 26 mM NaHCO3, […], 1 mM NaH2PO4, 1.3 mM CaCl2, 1.5 MgCl2, and 10 mM glucose) adjusted to pH 7.4 before use. All incubations were carried out at 37 °C in 95% O2 and 5% CO2. At the end of each experiment, samples were removed and immediately placed on ice. The concentration of ATP in the samples was determined using a luciferin/luciferase bioluminescence reaction (ATP Determination Kit, Molecular Probes) and detected using a luminescence plate reader (FLUOStar OPTIMA FL, BMG Labtech). Standard curves were generated for each experiment from an ATP standard (0 to 500 nM) and used to convert bioluminescence units to ATP concentration. […] Only readings in the plateau phase of the reaction were included in averaging for the well value. Each peptide was tested in at least an n of 2 separate experiments.

[3] = Human serum stability assay (RP-HPLC); conditions: for stability in human serum (result in words): 25% aq. human serum, 37°C, 48 h
Method: We then evaluated the N-methylated variants 7 and 8, D amino acid variants 9 and 10, and the two carbo cyclic peptides 39 and 42. Each peptide was incubated with 25% aq. human serum at 37°C, and 6 aliquots were extracted within 48 h. The stability of each peptide upon exposure to human serum was then analyzed via analytical RP HPLC, and the amount of peptide still present at each time point was recorded relative to t = 0 h.
Whole blood was collected from a healthy volunteer and stored in a covered test tube and was allowed to clot by leaving it undisturbed at r.t. for ca. 1 h. The clot was removed by centrifugation at 1,000-2,000 x g for 10 min and the resulting supernatant was designated as the serum. The serum was collected and stored in 0.5 mL aliquots, whereby the samples were stored at - 20 °C.
200 µM concentration of peptide was incubated in 25% aq. human serum (1.7 mL) and left to shake at 37 °C. Aliquots of human serum-peptide mixture (270 µL) were taken at given times (0 h, 1 h, 4 h, 8 h, 24 h, and 48 h) and threefold excess of acetonitrile (810 µL) was added to the aliquot and left for 1 h at 0 °C. The samples underwent centrifugation (14,500 rpm) for 30 min at r.t. and the supernatant was subsequently collected. Upon evaporation of the solvents, the resulting dry, pale-yellow residue was dissolved in water containing 0.1 % TFA.
The dissolved solution was analysed via analytical RP HPLC and the quantity of the peptide was expressed as a percentage relative to the peptide peak area obtained at time zero (i.e. 100% peptide amount at t = 0 h). A scatterplot graph representing percentage of peptide versus time was generated.

[4] = tested on: gap junctions; conditions: ref Kim et al., 2017b; cited from earlier work

CC1(C)[C@@H](OC(=O)CCC(=O)O)CC[C@]2(C)[C@H]3C(=O)C=C4[C@@H]5C[C@@](C)(C(=O)O)CC[C@]5(C)CC[C@@]4(C)[C@]3(C)CC[C@@H]12 [Cbx, carbenoxolone, reference compound]
LY dye spread (number of LY-positive cells) as percentage of untreated control [1]: 16.2 ± 1.1%

CC(C)C[C@H](NC(=O)[C@H](Cc1ccccc1)NC(=O)[C@H](CS)NC(=O)[C@H](CC(=O)O)NC(=O)[C@@H](N)C(C)C)C(=O)N[C@@H](CO)C(=O)N[C@@H](CCCNC(=N)N)C(=O)N1CCC[C@H]1C(=O)N[C@H](C(=O)N[C@@H](CCC(=O)O)C(=O)N[C@H](CCCCN)C(=O)N[C@H](C(=O)O)[C@@H](C)O)[C@@H](C)O [Peptide 9, H2N-VDCFLSRPTEkT-CO2H] (H-VDCFLSRPTE[dK]T-OH)
LY dye spread compared to peptide5 (result in words) [1]: not statistically different from peptide5
LY dye spread (number of LY-positive cells) as percentage of untreated control [1]: 74.7 ± 10.4%

CC(C)C[C@H](NC(=O)[C@H](Cc1ccccc1)NC(=O)[C@H](CS)NC(=O)[C@H](CC(=O)O)NC(=O)[C@@H](N)C(C)C)C(=O)N[C@@H](CO)C(=O)N[C@H](CCCNC(=N)N)C(=O)N1CCC[C@H]1C(=O)N[C@H](C(=O)N[C@@H](CCC(=O)O)C(=O)N[C@@H](CCCCN)C(=O)N[C@H](C(=O)O)[C@@H](C)O)[C@@H](C)O [Peptide 10, H2N-VDCFLSrPTEKT-CO2H] (H-VDCFLS[dR]PTEKT-OH)
ATP release compared to HAIR control (result in words) [2]: complete lack of activity
ATP release compared to peptide5 (result in words) [2]: significantly increased compared to peptide5 (1)
LY dye spread / gap junction inhibition compared to control (result in words) [1]: did not reduce the degree of dye spread compared to control
LY dye spread compared to peptide5 (result in words) [1]: significantly increased compared to peptide5 (1)

CC(C)C[C@@H]1NC(=O)[C@H](Cc2ccccc2)NC(=O)[C@H](CS)NC(=O)[C@H](CC(=O)O)NC(=O)[C@H](C(C)C)NC(=O)[C@@H](N)CC=CC[C@@H](C(=O)O)NC(=O)[C@H]([C@@H](C)O)NC(=O)[C@H](CCCCN)NC(=O)[C@H](CCC(=O)O)NC(=O)[C@H]([C@@H](C)O)NC(=O)[C@@H]2CCCN2C(=O)[C@H](CCCNC(=N)N)NC(=O)[C@H](CO)NC1=O [Peptide 39] (H-[AllylGly]VDCFLSRPTEKT[AllylGly]-OH; staple 1-14)
stability in human serum (result in words) [3]: good stability over 48 h; also recorded: the most stable in human serum

CC(C)C[C@@H]1NC(=O)[C@H](Cc2ccccc2)NC(=O)[C@H](CS)NC(=O)[C@H](CC(=O)O)NC(=O)[C@H](C(C)C)NC(=O)[C@@H](N)CC=CC[C@@H](C(=O)N[C@H](C(=O)O)[C@@H](C)O)NC(=O)[C@H](CCC(=O)O)NC(=O)[C@H]([C@@H](C)O)NC(=O)[C@@H]2CCCN2C(=O)[C@H](CCCNC(=N)N)NC(=O)[C@H](CO)NC1=O [Peptide 42] (H-[AllylGly]VDCFLSRPTE[AllylGly]T-OH; staple 1-12)
stability in human serum (result in words) [3]: extremely resistant to enzymatic degradation; also recorded: the most stable in human serum
remaining at 48 h, 200 µM ([3]; human, serum): ~90%

(CH 3 ) 2 CH 2 CH 2 OCO-NH-VDCFLSRPTEKT-CO2H (isopentyloxycarbonyl-VDCFLSRPTEKT-OH) [Peptide 3]
ATP release over untreated HAIR controls [2]: 52.6 ± 1.3%
ATP release compared to peptide5 (result in words) [2]: equaling the efficacy of peptide5 (1)

CH 3 CH 2 CH 2 CO-NH-VDCFLSRPTEKT-CO2H (Butyryl-VDCFLSRPTEKT-OH) [Peptide 5]
ATP release over untreated HAIR controls [2]: 57.3 ± 12.4%
ATP release compared to peptide5 (result in words) [2]: equaling the efficacy of peptide5 (1)

CH 3 CH 2 CH 2 CO-NH-VDCFLSRPTEKT-CONH 2 (Butyryl-VDCFLSRPTEKT-NH2) [Peptide 14]
LY dye spread compared to peptide5 (result in words) [1]: significantly increased dye spread relative to peptide5 (1)

CH 3 CH 2 OCO-NH-VDCFLSRPTEKT-CO2H (Ethoxycarbonyl-VDCFLSRPTEKT-OH) [Peptide 2]
ATP release compared to HAIR control (result in words) [2]: did not reduce ATP release compared to HAIR control
LY dye spread compared to peptide5 (result in words) [1]: significantly increased dye spread relative to peptide5 (1)

CH 3 CH 2 OCO-NH-VDCFLSRPTEKT-CONH 2 (Ethoxycarbonyl-VDCFLSRPTEKT-NH2) [Peptide 11]
LY dye spread compared to peptide5 (result in words) [1]: significantly increased dye spread relative to peptide5 (1)

H2N-VDCFLSRPTEKT-CH 2 OH (H-VDCFLSRPTEKT-CH2OH) [Peptide 15]
LY dye spread compared to peptide5 (result in words) [1]: significantly increased dye spread relative to peptide5 (1)

N 3 -VDCFLSRPTEKT-CO2H (N3-VDCFLSRPTEKT-OH) [Peptide 6]
ATP release compared to HAIR control (result in words) [2]: complete lack of activity; also recorded: did not reduce ATP release compared to HAIR control
ATP release compared to peptide5 (result in words) [2]: significantly increased compared to peptide5 (1)
LY dye spread compared to peptide5 (result in words) [1]: significantly increased dye spread relative to peptide5 (1)

PhCO-NH-VDCFLSRPTEKT-CO2H (Bz-VDCFLSRPTEKT-OH) [Peptide 4]
ATP release compared to HAIR control (result in words) [2]: did not reduce ATP release compared to HAIR control
LY dye spread compared to peptide5 (result in words) [1]: significantly increased dye spread relative to peptide5 (1)

SRPTEKT [a truncated peptide5]
gap junction inhibition compared with peptide5 (result in words) [4]: equally effective as a gap junction inhibitor
